Marks after values point to notes of the source that are not given here.
Key:
trained panelists [1] = test: time-intensity analysis of cooling, mouthwash application; format: in vivo; conditions: for Iext (cooling intensity at end of evaluation): 15 minutes after expectoration
Protocol: In order to evaluate the potential use of menthol glycinates as […] different food, beverage and oral hygiene products, select compounds were incorporated in different application systems. A beverage model system, a lozenge and a mouthwash application were created, and time-intensity analysis was performed using trained discrimination analysis panelists. Time-Intensity (TI) is a temporal sensory method. During TI evaluations, assessors are asked to score the intensity of perception of a single attribute over consumption of the product. Compared to single point measurements, TI analysis can characterize the onset, decline and rates thereof, of particular sensory characteristics. This analysis may reveal rich information regarding the intensity of an attribute over the time domain and identify temporal perceptual differences among samples that can greatly impact the overall profile of a product. For each sample evaluation, a temporal curve is generated, based on duplication. The temporal curves for each panelist are combined to generate a combined curve for each product that is evaluated. The following distinct parameters were calculated: Imax: peak intensity or maximum observed intensity on the whole curve; […]: time point where the reaction to the stimulus is first perceived on the curve; Tmax: time position of the peak intensity on the curve; Tplateau: protraction of maximum intensity or duration of maximum intensity; Text: time point of extinction of the perception of the stimulus, defined as the position in time after the peak intensity where the measured intensity disappears (or the end of evaluation window); Iext: intensity at time of extinction or end of evaluation; R increase: slope or rate of intensity increase between […] and Tmax; R decrease: slope or rate of intensity decrease between Tmax and Text; and Area: the total area under the time-intensity curve. The formula shown in Table 8 was employed to create a mouthwash product to evaluate […] of interest using time-Intensity analysis. [table] The following test compounds were evaluated: menthol, XI-I-60, RK-2-10, XI-I-65, DK-1-50, and XI-2-73. For time-intensity (T-I) evaluation of the cooling attributes of mouthwash products, 8 panelists were recruited (2 male, 6 female). Panelists were trained in basic taste descriptive analysis. A sweetness reference series (intensity range 2-12) was provided to be used as cross-modality reference to aid in scaling the intensity of the cooling attribute present in the mouthwash samples. Panelists evaluated samples in duplicates and all sample were presented blinded and in a randomized order using a 3-digit code. Panelist evaluated 15 ml of mouthwash at a time and were instructed to rinse for 30 seconds and expectorate. Panelists were instructed to provide cooling intensities before and after expectoration. For the time before expectoration, evaluation started upon introducing the sample and every 10 seconds thereafter. After expectoration, the evaluation continued for 15 minutes and panelists provided cooling intensity ratings at predetermined times. Due to the unique nature of this product and the interest in prolonging the cooling attribute long after consumption, an additional parameter led was evaluated among samples via ANOVA. This parameter is the cooling intensity at time of extinction or in our case the end of evaluation. Data analysis for generation of T-I statistics and ANOVA analysis to determine significant difference among samples was performed using R STUDIO.

[2] = estimated, relative to menthol; cited from earlier work
trained panelists [3] = test: time-intensity analysis of cooling, lozenge application; format: in vivo; conditions: 4-minute window
Protocol: In order to evaluate the potential use of menthol glycinates as […] different food, beverage and oral hygiene products, select compounds were incorporated in different application systems. A beverage model system, a lozenge and a mouthwash application were created, and time-intensity analysis was performed using trained discrimination analysis panelists. Time-Intensity (TI) is a temporal sensory method. During TI evaluations, assessors are asked to score the intensity of perception of a single attribute over consumption of the product. Compared to single point measurements, TI analysis can characterize the onset, decline and rates thereof, of particular sensory characteristics. This analysis may reveal rich information regarding the intensity of an attribute over the time domain and identify temporal perceptual differences among samples that can greatly impact the overall profile of a product. For each sample evaluation, a temporal curve is generated, based on duplication. The temporal curves for each panelist are combined to generate a combined curve for each product that is evaluated. The following distinct parameters were calculated: Imax: peak intensity or maximum observed intensity on the whole curve; […]: time point where the reaction to the stimulus is first perceived on the curve; Tmax: time position of the peak intensity on the curve; Tplateau: protraction of maximum intensity or duration of maximum intensity; Text: time point of extinction of the perception of the stimulus, defined as the position in time after the peak intensity where the measured intensity disappears (or the end of evaluation window); Iext: intensity at time of extinction or end of evaluation; R increase: slope or rate of intensity increase between […] and Tmax; R decrease: slope or rate of intensity decrease between Tmax and Text; and Area: the total area under the time-intensity curve. The formula detailed in Table 4 was employed to create the lozenge application to evaluate menthol glycinates of interest using time-intensity analysis. [table] For time-intensity (T-I) evaluation of the cooling intensity of lozenges, 9 panelists were recruited (3 male, 6 female). Panelists were trained in basic taste descriptive analysis. A sweetness reference series (intensity range 2-12) was provided to be used as cross-modality reference to aid in scaling the intensity of the cool attribute present in the lozenge samples. Panelists evaluated samples in duplicates and all samples were presented blinded and in a randomized order using a 3-digit code. Panelists were instructed to provide cooling intensity at predetermined time points throughout an evaluation window of 4 minutes. […] Evaluations were performed with at least 4 hours between them to ensure no carry over. Data analysis for generation of T-I statistics and ANOVA analysis to determine significant difference among samples was performed using R STUDIO.

[4] = after expectoration for 15 minutes (Table 9b)
[5] = rinse phase 30 seconds (Table 9a)

(1R,2S,5R)-2-Isopropyl-5-methylcyclohexyl 2-(benzyl(methyl)amino)acetate [Product 15]
Iext (cooling intensity at end of evaluation) (trained panelists [1]): 0.67^a | AUC (trained panelists [1]; [4]): 4082.50^ac | I max (trained panelists [1]; [4]): 13.50^ab | Rdec (trained panelists [1]; [4]): −0.01^b | Tmax (trained panelists [1]; [4]): 32.50^a | Tstart (trained panelists [1]; [4]): 30.00^a | AUC (trained panelists [1]; [5]): 179.79^a | Rinc (trained panelists [1]; [5]): 0.21^a | Tstart (trained panelists [1]; [5]): 10.00^a

CC(C)[C@@H]1CC[C@@H](C)C[C@H]1C(=O)NCCc1ccccn1 [amide 19]
times cooler than menthol (cooling potential) [2]: about 100 times

Cc1cc2ccccc2n1CCNC(=O)[C@@H]1C[C@H](C)CC[C@H]1C(C)C [compound 1]
times cooler than menthol (cooling potential) [2]: ~1000 times

CC(C)[C@@H]1CC[C@@H](C)C[C@H]1OC(=O)CNC1CC1 [Product 12, (1R,2S,5R)-2-isopropyl-5-methylcyclohexyl 2-(cyclopropylamino)acetate]
Iext (cooling intensity at end of evaluation) (trained panelists [1]; listed as XI-1-66): significantly higher cooling intensity | Iext (cooling intensity at end of evaluation) (trained panelists [1]; listed as XI-I-65): 2.18^b | AUC (trained panelists [1]; [4]): 5211.25^bc | I max (trained panelists [1]; [4]): 13.20^ab | Rdec (trained panelists [1]; [4]): −0.01^b | Tmax (trained panelists [1]; [4]): 32.50^a | Tstart (trained panelists [1]; [4]): 30.00^a | Rinc (trained panelists [1]; after expectoration for 15 minutes (Table 9b), listed as XI-I-65): 0.03^b | Rinc (trained panelists [1]; after expectoration for 15 minutes (Table 9b), listed as XI-I-66): positive and significantly higher compared to that of menthol | AUC (trained panelists [1]; [5]): 186.88^a | Rinc (trained panelists [1]; [5]): 0.23^a | Tstart (trained panelists [1]; [5]): 10.00^a | Rdec (trained panelists [1]; rinse phase 30 seconds (Table 9a), listed as XI-165): significantly lower R decrease | Rdec (trained panelists [1]; rinse phase 30 seconds (Table 9a), listed as XI-I-65): 0.00^b | AUC (total area under time-intensity curve) (trained panelists [3]): not significantly different than menthol

(1R,2S,5R)-2-isopropyl-5-methylcyclohexyl 2-(cyclopropylamino)acetate [Product 12]
AUC (total area under time-intensity curve) (trained panelists [3]): 1945.31^bc | RDec (rate of intensity decrease) (trained panelists [3]): 0.042^ab | RInc (rate of intensity increase) (trained panelists [3]): 0.042^ab | Tmax (time of peak intensity) (trained panelists [3]): 206.25^a

CC(C)NCC(=O)O[C@@H]1C[C@H](C)CC[C@H]1C(C)C [Product 7, (1R,2S,5R)-2-Isopropyl-5-methylcyclohexyl 2-(isopropylamino)acetate]
Iext (cooling intensity at end of evaluation) (trained panelists [1]): significantly higher cooling intensity | AUC (trained panelists [1]; [4]): significantly higher | Imax (trained panelists [1]; [5]): trending higher | Rdec (trained panelists [1]; [5]): significantly lower R decrease | Tstart (time cooling first perceived) (trained panelists [3]): significantly delayed cooling onset

From patent US20210093531A1, “DERIVATIVES OF MENTHOL AND USES THEREOF” (Board of Trustees of Northern Illinois University, priority 2019, published 2021)
